Assay [1] relates to P. aeruginosa P9. Nature of the assay: Minimal inhibitory concentration (MIC) by the agar dilution method, P. aeruginosa P9. It is filed as cell-based. The following applies: Pseudomonas aeruginosa, Mueller-Hinton agar, about 10^4 CFU/spot, 37° C. overnight. Here is the method:
(§1) Test Example 1 Minimal Inhibitory Concentrations (MIC)
(§2) The minimal inhibitory concentrations (MIC) of the test compounds were determined by the agar dilution method. More specifically, 0.25 ml each of aqueous solutions of the test compounds diluted by the serial dilution method was poured into petridishes. To each of these petridishes was poured 9.75 ml of Mueller-Hinton agar, followed by mixing. On each of these agar plates was a suspension of the test microorganism (about 10^4 CFU/spot). The lowest concentration of the test compounds inhibiting the growth of test microorganisms, after the incubation at 37° C. overnight, was taken as MIC.
(In general: In agar dilution, organisms are placed on agar that contains the substance at set levels.)

Assay [2] concerns P. aeruginosa NC-5. The experiment in a line: Minimal inhibitory concentration (MIC) by the agar dilution method, P. aeruginosa NC-5. It is filed as cell-based. To be noted: Pseudomonas aeruginosa, NC5, Mueller-Hinton agar, about 10^4 CFU/spot, 37° C. overnight. The procedure: as §1, §2

What is called MIC is the lowest concentration that inhibits growth of the organism. Lower therefore signals inhibition by little substance. Consider `CO/N=C(\C(=O)N[C@@H]1C(=O)N2C(C(=O)O)=C(CSc3nnnn3Cc3cc(=O)c(O)cn3OC)CS[C@H]12)c1nsc(N)n1` [Ex. 10, Sodium 7β-[2-(5-amino-1,2,4-thiadiazol-3-yl)-(Z)-2-methoxyiminoacetamido]-3-[[1-[(5-hydroxy-1-methoxy-4-pyridon-2-yl)methyl]-1H-tetrazol-5-yl]thiomethyl]-3-cephem-4-carboxylate], for which the minimum inhibitory concentration (MIC) is 0.2 µg/mL in assay [1] and 0.1 µg/mL in assay [2].
For `CCO/N=C(\C(=O)N[C@@H]1C(=O)N2C(C(=O)O)=C(CSc3nnnn3Cc3cc(=O)c(O)cn3OC)CS[C@H]12)c1nsc(N)n1` [Ex. 12, Sodium 7β-[2-(5-amino-1,2,4-thiadiazol-3-yl)-(Z)-2-ethoxyiminoacetamido]-3-[[1-[(5-hydroxy-1-methoxy-4-pyridon-2-yl)methyl]-1H-tetrazol-5-yl]thiomethyl]-3-cephem-4-carboxylate], the MIC in assay [1] and in assay [2] was 0.2 µg/mL each time.
On to `CO/N=C(\C(=O)N[C@@H]1C(=O)N2C(C(=O)O)=C(CSc3snc(SCc4cc(=O)c(O)cn4O)c3C#N)CS[C@H]12)c1nsc(N)n1` [Ex. 3, Sodium 7β-[2-(5-amino-1,2,4-thiadiazol-3-yl)-(Z)-2-methoxyiminoacetamido]-3-[[4-cyano-3-[(1,5-dihydroxy-4-pyridon-2-yl)methylthio]isothiazol-5-yl]thiomethyl]-3-cephem-4-carboxylate], for which the MIC in assay [1] came to 0.1 µg/mL; in assay [2], 0.05 µg/mL.
For `CC(C)(O/N=C(\C(=O)N[C@@H]1C(=O)N2C(C(=O)O)=C(CSc3nnnn3Cc3cc(=O)c(O)cn3O)CS[C@H]12)c1nsc(N)n1)C(=O)O` [Ex. 26, Disodium 7β-[2-(5-amino-1,2,4-thiadiazol-3-yl)-(Z)-2-(1-carboxylato-1-methylethoxyimino)acetamido]-3-[[1-[(1,5-dihydroxy-4-pyridon-2-yl)methyl]-1H-tetrazol-5-yl]thiomethyl]-3-cephem-4-carboxylate], in that order: 0.025 µg/mL and 0.006 µg/mL.
